The target in test [1] is IAS arginase activity. As to the kind of experiment: arginase activity in IAS homogenate. It is filed as biochemical, opossum. An excerpt: (§1) Tissue samples of the opossum internal anal sphincter muscle (IAS), adjoining rectal tissue, liver, and brain were homogenized using an ULTRATURRAX™ tissue homogenizer (Tekamr, Cincinnati, Ohio) in a solution comprising 10 millimolar Tris-HCl, 150 millimolar KCl, and 25 millimolar MnCl2, at pH 7.4. The homogenates were dialyzed overnight against the same solution. Dialyzed homogenates were centrifuged to remove insoluble material and concentrated with Amicon CENTRICON™ 30 microconcentrators to yield stock protein preparations having protein concentrations of 2.4 milligrams per milliliter for IAS smooth muscle, 3.6 milligrams per milliliter for rectal smooth muscle, 3 milligrams per milliliter for brain, and 17.5 milligrams per milliliter for liver. Protein concentrations were estimated with the Pierce Coomassie Protein Reagent kit using bovine serum albumin as a standard.
(§2) Arginase activity in tissue homogenates was evaluated using the radioactive L-[guanidino^14C]arginine assay of Rüegg and Russell (1980, Anal. Biochem. 102:206-212). Assays were performed using a solution comprising 100 millimolar CHES-NaOH and 0.1 millimolar MnCl2 at pH 9.0. The reactions were initiated by addition of 5 microliters of tissue homogenate to 45 microliters of reaction mixture that contained the CHES buffer, the appropriate concentration of arginine (0.5 to 5 millimolar) and about 5.0×10^4 counts per minute of L-[guanidino-^14C]arginine. IAS, rectal muscle, and brain homogenates were incubated with the assay mixture at room temperature for one hour, and the liver sample was incubated for 5 minutes. […] Urea was separated from non-reacted L-[guanidino-^14C]arginine by treatment with 200 μl of 1:1 v/v slurry of DOWEX™ 50W-X8 in water, and quantitated by adding 200 microliters of the supernatant from the DOWEX™ treatment to 3 milliliters of LIQUISCENT™ (National Diagnostics) for liquid scintillation counting in a Beckman LS 5000CE counter. The data were analyzed using double-reciprocal plots of the initial velocity measurements; standard errors were determined by regression analysis. […]

Test [2] concerns the target T1, arginase (Rattus norvegicus, UniProt P07824).
T1 sequence (P07824 1-323): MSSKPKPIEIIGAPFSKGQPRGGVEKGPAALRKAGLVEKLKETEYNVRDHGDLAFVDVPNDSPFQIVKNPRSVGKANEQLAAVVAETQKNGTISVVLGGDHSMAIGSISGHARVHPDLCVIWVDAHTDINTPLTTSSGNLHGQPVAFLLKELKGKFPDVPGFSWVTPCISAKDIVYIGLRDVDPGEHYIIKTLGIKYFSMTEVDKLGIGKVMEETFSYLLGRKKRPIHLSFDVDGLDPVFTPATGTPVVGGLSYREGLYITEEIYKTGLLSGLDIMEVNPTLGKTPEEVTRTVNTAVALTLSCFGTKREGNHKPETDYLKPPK
As to the kind of experiment: isothermal titration calorimetry. It is filed as binding. Set-up: made in house. The protocol: All calorimetry experiments were conducted on a MCS isothermal calorimeter from MicroCal, Inc. (Northampton, Mass.). Arginase was exhaustively dialyzed against a solution comprising 100 micromolar MnCl2 and 50 millimolar bicine-NaOH (pH 8.5). […] Prior to the titration experiment, samples were de-gassed under vacuum for 5 minutes. […] The contents of the sample cell were titrated with 30-40 aliquots (2.5 microliters each) of inhibitor (an initial 1 microliters injection was made, but not used in data analysis). After each injection, the heat change was measured and converted to the corresponding enthalpy value. The reaction mixture was continuously stirred at 400 rotations per minute during titration. Control experiments were carried out by titrating the inhibitor into the buffer solution under identical experimental conditions. Data analysis was performed using ORIGIN™ software provided with the instrument. The calorimetric data are presented with the background titrations subtracted from the experimental data. The amount of heat produced per injection was calculated by integration of the area under each peak. The data were fit to the following equation, […]

In test [3] the target is T1, arginase. As to the kind of experiment: dialysis/dilution reversibility experiments with pre-incubated arginase-inhibitor complex. Type of test: biochemical. The arrangement: made in house. The protocol:
Dialysis experiments of arginase with the arginase-compound 7 and arginase-compound 15 complexes were performed in following way. Thirty microliters of arginase at a concentration of 11.2 milligrams per milliliter were pre-incubated for thirty minutes with an appropriate concentration of compound 7 (5 microliters of 100 micromolar stock solution). […] Pre-incubates were then added to bicine buffer containing 4 millimolar compound 18. The final volume of the assay reaction solution was 1 milliliter.

The target of test [4] is brain arginase activity. As to the kind of experiment: arginase activity in brain homogenate. Type of test: biochemical, opossum.
Source text: as §1, §2

The structures appear in SMILES notation.

Consider `N[C@@H](CCCCB(O)O)C(=O)O` [compound 7, 2(S)-amino-6-boronohexanoic acid], for which, in test [1] (IAS, read-out: IC50 for inhibition of arginase activity, IAS homogenate), the IC50 turned out to be 0.1 µM. In addition, the Ki in test [1] (arginine fixed at Km, assuming competitive inhibition, read-out: estimated Ki, IAS arginase activity) is 0.05 µM. The Kd in test [2] (100 micromolar MnCl2, 50 millimolar bicine pH 8.5, 25° C., read-out: Kd determined by titration calorimetry) came out at 0.11 µM. Also, in test [2] (pH 8.5, 25° C.), the “association constant (Ka)” value is reported as 8.89×10^6 inverse molar; the “enthalpy change (ΔH) of binding” value is given as −12.97 kilocalories per mole; the “stoichiometry (n), moles bound per mole of arginase monomer” value came out at 1.07. In test [3] (9.6 micromolar arginase, 0.5 micromolar ABHA), the “inhibited velocity, control without pre-incubation” value is 0.47 micromolar per minute. The reversibility of inhibition result in test [3] (30 minutes pre-incubation) is recorded as “reversible inhibitor”. The “observed inhibited velocity, diluted pre-incubate” value in test [3] (30 minutes pre-incubation, diluted to 0.5 micromolar ABHA and 9.6 micromolar arginase) is on record as 0.46 micromolar per minute. Besides, in test [3] (30 minutes pre-incubation, listed as ABHA), the reversibility of inhibition entry is “completely instantaneous reversible inhibition”. The Ki in test [4] (arginine fixed at Km, assuming competitive inhibition, read-out: estimated Ki, brain arginase activity) was 0.018 µM. In addition, the “times more potent than L-HO-Arg, brain” value in test [4] (brain homogenate) turned out to be 800 times.

The values are drawn from patent US6723710B2, “Compositions for inhibiting arginase activity” (The Trustees of the University of Pennsylvania, priority 1997, dated 2004).
